{"source": "patent US20230332232A1", "about": "“COMPOSITIONS AND METHODS FOR DIAGNOSING AND TREATING A DYSTONIA” (Duke University, priority 2020, published 2023)", "system": "DYT1 knockin (Tor1a^delGAG/+) murine embryonic fibroblasts (MEFs)", "experiment": "microRNA-seq of EVs from DYT1 MEFs treated with drug, compared with non-treated DYT1 MEFs", "assay_type": "cell-based, mouse", "settings": "for Sal Direction Opposite ISRIB?: EVs of DYT1 (Het) MEFs", "experimental": "In addition to proteomic analysis, total RNA-seq and microRNA-seq was performed on RNA isolated in parallel from the EV samples of Cohort 2. As with the proteomic analysis, one biological replicate was prepared from 3 distinct biological clonal cell lines for each genotype. Here, EVs were isolated from conditioned cell culture media by 18 hour ultracentrifugation at 100,000 g. RNA was extracted using the Qiagen miRNeasy Micro Kit (Cat. No. 217084) according to the manufacturer's protocol. Two RNA fractions were extracted from each sample, one enriched in coding and non-coding RNA species>200 nt (“Total RNA” fraction) and one enriched for small RNAs<200 nt (“miRNA” fraction). RNA samples were then submitted to the Duke Sequencing and Genomic Technologies shared resource for further quality control and sequencing. Samples were assessed for concentration and integrity by Qubit and Fragment Analyzer. The miRNA fractions were 4.16 ng/μL-47.57 ng/μL and total RNA fractions were 3.8 ng/μL-43.6 ng/μL. The small RNA library was prepared using the QIAseq miRNA Library Kit (Cat No./ID: 331505) and sequenced on the Illumina NextSeq 500 High-Output platform with 75 bp single-reads. The total RNA library was prepared using the Illumina TruSeq Stranded Total RNA-seq Kit with Ribozero Gold ribosomal RNA reduction and sequenced on the Illumina NovaSeq 6000 S1 platform with 100 bp paired-end reads. Sequencer lane pooling and read depth are attached in the Excel data summary (See “RNA QC” Tab). Data processing and analysis were performed in collaboration with the Duke Genomic Analysis and Bioinformatics shared resource. RNA-seq data was processed using the TrimGalore toolkit (http://www.bioinformatics.babraham.ac.uk/projects/trim_galore), which employs Cutadapt(Martin M. (2011) EMBnet.journal. 17(1):10-12) to trim low quality bases and Illumina sequencing adapters from the 3' end of the reads. Only reads that were 20 nt or longer after trimming were kept for further analysis. Reads were mapped to the mouse genome and transcriptome ([…], et al. (2012) Nucleic Acids Res. 40(Database issue):[…]-97) using the STAR RNA-seq alignment tool (Dobin A, et al. (2013). Bioinformatics. 29(1):15-21). If the reads mapped to a single genomic location, then they were kept for subsequent analysis. Gene counts were compiled using the HTSeq tool (http://www-huber.embl.de/users/anders/HTSeq/). Only genes that had at least 10 reads in any given library were used in subsequent analysis. Normalization and differential expression was carried out using the DESeq26 Bioconductor (Huber W, et al. (2015) Nat Methods. 12(2):115-121) package with the R statistical programming environment (www.r-project.org). […] 694 miRNAs were initially examined with respect to QC, genotype, RTV effects, and ISRIB effects. This subset was the “Full miRNA” subset. FIG. 9A and FIG. 9B show the RTV effect on EV composition in DYT1 cells compared to WT cells for 279 miRNAs, respectively. […] Beginning with the 694 miRNAs in the “Full miRNA” subset, more than 60 molecules were detected in either WT cells or DYT1 cells (WT or Het UMI>60). […] The candidate miRNAs were ranked by the sum of genotype-dependent absolute Z-scores and RTV-induced absolute Z-scores (Abs Z Score Sum (Geno+RTV)). This subset was the “miRNA-Ritonavir Therapeutic Efficacy” subset and contained 201 miRNAs."}
{"molecule": "O=C(/C=C/c1ccccc1)NC(NC(=S)Nc1cccc2cccnc12)C(Cl)(Cl)Cl", "note": "(stereo not drawn) [SAL, Salubrinal]", "values": [{"measurement": "SALvHet Z Score", "setting": "mmu-miR-181a-5p", "value": "−0.23"}, {"measurement": "SALvHet Z Score", "setting": "mmu-miR-181b-5p", "value": "−0.32"}, {"measurement": "SALvHet Z Score", "setting": "mmu-miR-181c-5p", "value": 0.26}, {"measurement": "SALvHet Z Score", "setting": "mmu-miR-182-5p", "value": 0.01}, {"measurement": "Sal Direction Opposite ISRIB?", "setting": "mmu-miR-182-5p", "value": "yes"}, {"measurement": "SALvHet Z Score", "setting": "mmu-miR-183-5p", "value": "−0.06"}, {"measurement": "SALvHet Z Score", "setting": "mmu-miR-185-5p", "value": 0.15}, {"measurement": "SALvHet Z Score", "setting": "mmu-miR-186-5p", "value": 0.00}, {"measurement": "SALvHet Z Score", "setting": "mmu-miR-187-3p", "value": 0.30}, {"measurement": "Sal Direction Opposite ISRIB?", "setting": "mmu-miR-187-3p", "value": "yes"}, {"measurement": "SALvHet Z Score", "setting": "mmu-miR-188-5p", "value": "−0.05"}, {"measurement": "SALvHet Z Score", "setting": "mmu-miR-190b-5p", "value": 0.15}, {"measurement": "SALvHet Z Score", "setting": "mmu-miR-191-5p", "value": 0.04}, {"measurement": "SALvHet Z Score", "setting": "mmu-miR-192-5p", "value": 0.09}, {"measurement": "Sal Direction Opposite ISRIB?", "setting": "mmu-miR-192-5p", "value": "yes"}, {"measurement": "SALvHet Z Score", "setting": "mmu-miR-194-5p", "value": 0.18}, {"measurement": "SALvHet Z Score", "setting": "mmu-miR-199a-3p", "value": "−0.10"}, {"measurement": "SALvHet Z Score", "setting": "mmu-miR-199b-3p", "value": "−0.10"}, {"measurement": "SALvHet Z Score", "setting": "mmu-miR-206-3p", "value": "−0.27"}, {"measurement": "SALvHet Z Score", "setting": "mmu-miR-214-5p", "value": 0.04}, {"measurement": "SALvHet Z Score", "setting": "mmu-miR-219a-5p", "value": 0.34}, {"measurement": "SALvHet Z Score", "setting": "mmu-miR-223-3p", "value": "−0.01"}, {"measurement": "SALvHet Z Score", "setting": "mmu-miR-224-5p", "value": "−0.27"}, {"measurement": "SALvHet Z Score", "setting": "mmu-miR-296-3p", "value": 0.05}, {"measurement": "Sal Direction Opposite ISRIB?", "setting": "mmu-miR-296-3p", "value": "yes"}, {"measurement": "SALvHet Z Score", "setting": "mmu-miR-298-5p", "value": 0.16}, {"measurement": "Sal Direction Opposite ISRIB?", "setting": "mmu-miR-298-5p", "value": "yes"}, {"measurement": "SALvHet Z Score", "setting": "mmu-miR-299a-3p", "value": 0.39}, {"measurement": "SALvHet Z Score", "setting": "mmu-miR-301a-3p", "value": 0.35}, {"measurement": "SALvHet Z Score", "setting": "mmu-miR-301b-3p", "value": 0.01}, {"measurement": "SALvHet Z Score", "setting": "mmu-miR-320-3p", "value": "−0.21"}, {"measurement": "SALvHet Z Score", "setting": "mmu-miR-322-5p", "value": "−0.07"}, {"measurement": "SALvHet Z Score", "setting": "mmu-miR-324-3p", "value": 0.16}, {"measurement": "SALvHet Z Score", "setting": "mmu-miR-335-Sp", "value": "−0.35"}, {"measurement": "SALvHet Z Score", "setting": "mmu-miR-340-5p", "value": 0.31}, {"measurement": "SALvHet Z Score", "setting": "mmu-miR-344-3p", "value": 0.44}, {"measurement": "Sal Direction Opposite ISRIB?", "setting": "mmu-miR-344-3p", "value": "yes"}, {"measurement": "SALvHet Z Score", "setting": "mmu-miR-350-3p", "value": 0.08}, {"measurement": "SALvHet Z Score", "setting": "mmu-miR-361-5p", "value": "−0.15"}, {"measurement": "SALvHet Z Score", "setting": "mmu-miR-362-3p", "value": 0.47}, {"measurement": "Sal Direction Opposite ISRIB?", "setting": "mmu-miR-362-3p", "value": "yes"}, {"measurement": "SALvHet Z Score", "setting": "mmu-miR-362-5p", "value": "−0.10"}, {"measurement": "SALvHet Z Score", "setting": "mmu-miR-378a-3p", "value": "−0.12"}, {"measurement": "SALvHet Z Score", "setting": "mmu-miR-450a-5p", "value": 0.09}, {"measurement": "SALvHet Z Score", "setting": "mmu-miR-450b-3p", "value": "−0.29"}, {"measurement": "SALvHet Z Score", "setting": "mmu-miR-451a", "value": 0.38}, {"measurement": "SALvHet Z Score", "setting": "mmu-miR-483-5p", "value": "−1.22"}, {"measurement": "SALvHet Z Score", "setting": "mmu-miR-500-3p", "value": 0.10}, {"measurement": "SALvHet Z Score", "setting": "mmu-miR-503-3p", "value": "−0.70"}, {"measurement": "SALvHet Z Score", "setting": "mmu-miR-532-5p", "value": "−0.06"}, {"measurement": "SALvHet Z Score", "setting": "mmu-miR-542-3p", "value": 0.33}, {"measurement": "SALvHet Z Score", "setting": "mmu-miR-542-5p", "value": 0.39}, {"measurement": "Sal Direction Opposite ISRIB?", "setting": "mmu-miR-542-5p", "value": "yes"}, {"measurement": "SALvHet Z Score", "setting": "mmu-miR-582-3p", "value": "−0.45"}, {"measurement": "SALvHet Z Score", "setting": "mmu-miR-652-3p", "value": 0.34}, {"measurement": "SALvHet Z Score", "setting": "mmu-miR-671-5p", "value": 0.26}, {"measurement": "Sal Direction Opposite ISRIB?", "setting": "mmu-miR-671-5p", "value": "yes"}, {"measurement": "SALvHet Z Score", "setting": "mmu-miR-700-3p", "value": 0.16}, {"measurement": "SALvHet Z Score", "setting": "mmu-miR-708-5p", "value": 0.58}, {"measurement": "SALvHet Z Score", "setting": "mmu-miR-872-5p", "value": 0.19}, {"measurement": "SALvHet Z Score", "setting": "mmu-miR-1291", "value": "−0.06"}, {"measurement": "SALvHet Z Score", "setting": "mmu-miR-1843a-5p", "value": 0.07}, {"measurement": "SALvHet Z Score", "setting": "mmu-miR-3102-3p", "value": 0.35}, {"measurement": "SALvHet Z Score", "setting": "mmu-miR-3535", "value": "−0.66"}, {"measurement": "SALvHet Z Score", "setting": "mmu-miR-5121", "value": 0.22}, {"measurement": "Sal Direction Opposite ISRIB?", "setting": "mmu-miR-5121", "value": "yes"}, {"measurement": "Sal Direction Opposite ISRIB?", "setting": "mmu-miR-30h-5p", "value": "yes"}, {"measurement": "SALvHet Z Score", "setting": "mmu-miR-30d-5p", "value": "−0.11"}, {"measurement": "SALvHet Z Score", "setting": "mmu-miR-344d-3p", "value": "−1.00"}]}
